This is an account of results in US20160376659A1, “Breast Cancer Biomarker” (The University of Manchester, priority 2015, published 2016).

Assay [1] relates to MCF-7, T47D and ZR-75-1 cells. Nature of the assay: BCSC activity (MFE, ALDH-positive cells) of pre-treated ER+ cell lines. The assay is classed as cell-based, human. Conditions: for ALDH-positive cells / mammosphere-forming activity: 6 days in vitro pre-treatment, 10^−6 M tamoxifen, 10^−7 M fulvestrant. As to the method: Single cell suspensions of freshly isolated ER+ primary and metastatic patient-derived samples were cultured for 7-9 days (primary cells) in mammosphere colony assays in the presence of ethanol, 10^−6 M 4-hydroxy-tamoxifen or 10^−7 M fulvestrant. Primary mammospheres were dissociated and replated in secondary mammosphere suspension culture for a further 7-9 days to measure self-renewal. Patient-derived xenograft cells were cultured for 7-10 days. For cell lines, cells were pre-treated in adherence and then cultured for 5 days in mammosphere culture. Mammosphere formation efficiency (MFE) was calculated by dividing the number of mammospheres formed (≧50 μm) by the original number of single cells seeded (500 cells/cm^2 for primary cells and 200 cells/cm^2 for cell lines) and is expressed as fold change normalised to control or as the mean percentage of MFE (Shaw et al., 2012).
(§1) Dissociated single cells were suspended in Aldefluor assay buffer containing an ALDH substrate, bodipyaminoacetaldehyde (BAAA) at […], and incubated for 45 min at 37° C. To distinguish between ALDH-positive and -negative cells, a fraction of cells was incubated under identical conditions in the presence of a 2-fold molar excess of the ALDH inhibitor, diethylaminobenzaldehyde (DEAB). Mouse cells were excluded from the FACS analysis with anti-mouse MHC Class I (H-2Kd) antibody conjugated with Pacific Blue (BioLegend, 116616). 7-aminoactinomycin D (7AAD, BD) was added for dead cell exclusion. Data were acquired on a LSR II (BD) flow cytometer and analysed using the BD FACSDiva™ software.
(§2) MCF7, T47D and ZR-75-1 cell lines were purchased from American Tissue Culture Collection (ATCC) and cultured in DMEM/F-12, GlutaMAX (Gibco) with 10% FBS (Gibco). Cells were treated for 3 days or 6 days with ethanol (control), 10^-6M 4-OH-tamoxifen or 10^−7M fulvestrant and/or with 10 μM of gamma-secretase inhibitor RO4929097 (Cellagen Technology) or DMSO (control).

Assay [2] has as its system Notch target genes HEY1 and HES1. Kind of assay: HEY1 and HES1 expression in ER+ cell lines (real-time PCR, Western Blot). The assay is classed as cell-based, human. Conditions: for expression of HEY1 and HES1: MCF-7, T47D, ZR-75-1, 6 days, in the ALDH+ subpopulation. As for the experimental part:
as §2
Total RNA was extracted using the RNeasy Plus Mini Kit (QIAGEN, 74104) and the concentration and purity determined using an ND-1000 spectrophotometer (NanoDrop Technologies). Reverse transcription of 1 μg of RNA was performed with Oligo(dT) using the TaqMan Reverse Transcription Reagents from Applied Biosystems (N8080234). Samples were incubated on a thermal cycler (MJ Research) for 10 minutes at 25° C., 30 minutes at 48° C. and 5 minutes at 95° C. Quantitative real-time PCR reactions were set up in triplicate in 384-well plates and performed on the 7900 PCR machine (Applied Biosystems) using TaqMan® Universal PCR Master Mix (Applied Biosystems) and probes from Universal Probe Library (Roche). Conditions used for amplification of cDNA fragments were as follows: 95° C. for 5 min, 40 cycles of amplification-95 C for 15 sec, 60 C for 1 min. The expression levels were calculated using the ΔΔCt method and normalised to the housekeeping genes 36B4 and GAPDH. The sequences of the primers and probes used can be found in the table below.
Proteins were extracted with Protein Lysis Buffer (25 mM HEPES, 50 mM NaCl, 30 mM NaPP, 50 mM NaF, 1% Triton-X-100, 10% Glycerol, 5 mM EDTA, Protease Inhibitor cocktail, 1 μM PMSF). Lysates were placed on a rotator for 1 hour at 4° C., then were centrifuged at 10000 g at 4° C. for 10 min, and supernatants were collected. Protein concentrations were assessed using the BCA Protein Assay Kit (Thermo Scientific, 23225). Proteins were separated on a 10% gel (Biorad, 456-1033) by SDS-PAGE at 200V for 1 hour, and then were transferred on polyvinylidene difluoride (PVDF) membranes (BioRad, 170-4157) at 25 V/1,300 mA for 15 min using a Trans Blot Turbo (BioRad, 170-4155). […]
(In general: Real-time PCR tracks product formation cycle by cycle.)

Assay [3] relates to ER+ metastatic BC patient-derived samples. Nature of the assay: ALDEFLUOR assay (ALDH enzymatic activity) in metastatic patient-derived cells. The assay is classed as cell-based, human. Conditions: Tamoxifen 10^−6 M or Fulvestrant 10^−7 M, 7-9 days; seven out of nine patient samples. As to the method:
Metastatic samples (ascites or pleural effusions) were centrifuged at 1000 g for 10 minutes at 4° C. The cell pellets were diluted in PBS. Erythrocytes and leucocytes were removed using Lymphoprep (Axis-Shield) and CD45-negative magnetic sorting (Miltenyi Biotec), respectively. Cells were cultured in adherence for 7-9 days in DMEM/F-12 medium, GlutaMAX (Gibco) with 10% FBS (Gibco), 10 μg/ml insulin (Sigma), 10 μg/ml hydrocortisone (Sigma) and 5 ng/ml epidermal growth factor (EGF, Sigma), in 10^−6M 4-OH-tamoxifen (Sigma, H7904), 10^−7M fulvestrant (ICI 182780, TOCRIS, 1047) or ethanol (control).
as §1

The test system of assay [4] is Notch target genes HEY1 and HES1. Kind of assay: HEY1 and HES1 expression by real-time PCR in PDX tumors treated in vivo. Also on record: species or system mice. Conditions: PDX tumors treated in vivo 2 weeks. As to the method:
Tamoxifen citrate (Sigma, T9262, 10 mg/kg/day) and RO4929097 (Cellagen Technology, 3 mg/kg/day) were administered by oral gavage (0.1 ml/dose) on a five day from seven basis (weekends excluded) for fourteen days. Tamoxifen citrate and RO4929097 were prepared in 1% carboxymethylcellulose (Sigma, C9481) dissolved in distilled water. Fulvestrant (kindly provided by Astrazeneca, 200 mg/kg/week) was administered by subcutaneous injection (0.1 ml/dose) on a weekly basis for fourteen days. The HBC×22 and HBC×34 tamoxifen-resistant PDXs have been established by our collaborators in the Curie Institute (Cottu el al, 2014) and were treated for fourteen days in the presence or absence of the gamma-secretase inhibitor RO4929097 (10 mg/kg/day, oral gavage). […]
Total RNA was extracted using the RNeasy Plus Mini Kit (QIAGEN, 74104) and the concentration and purity determined using an ND-1000 spectrophotometer (NanoDrop Technologies). […] Quantitative real-time PCR reactions were set up in triplicate in 384-well plates and performed on the 7900 PCR machine (Applied Biosystems) using TaqMan® Universal PCR Master Mix (Applied Biosystems) and probes from Universal Probe Library (Roche). […] The expression levels were calculated using the ΔΔCt method and normalised to the housekeeping genes 36B4 and GAPDH. […]

Regarding `CC(C)(C(=O)NCC(F)(F)C(F)(F)F)C(=O)N[C@@H]1C(=O)Nc2ccccc2-c2ccccc21` [RO4929097], in assay [1] (3 days tamoxifen or fulvestrant concomitantly with RO4929097 10 μM), the “BCSC activity as assayed by MFE and ALDH-positive cells” value is “reduced”. Also, in assay [2] (MCF-7 cells pre-treated six days with RO4929097 10 μM), the “HEY1 and HES1 mRNA and protein levels” value is recorded as “decreased”.

Turning to `C[C@]12CC[C@@H]3c4ccc(O)cc4C[C@@H](CCCCCCCCC[S+]([O-])CCCC(F)(F)C(F)(F)F)[C@H]3[C@@H]1CC[C@@H]2O` (stereo partly drawn) [fulvestrant], the ALDH enzymatic activity entry in assay [3] was “significant increase”. Further, the “HEY1 and HES1 expression” value in assay [4] is listed as “increased”. In addition, in assay [1], the ALDH-positive cells entry is “enriched” and the mammosphere-forming activity entry is “enriched”. In addition, in assay [2], the “expression of HEY1 and HES1” value was “preferentially increased”.

In the case of `CC/C(=C(\c1ccccc1)c1ccc(OCCN(C)C)cc1)c1ccccc1` [tamoxifen, (Z)-2-[4-(1,2-diphenylbut-1-enyl)phenoxy]-N,N-dimethylethanamine], the ALDH enzymatic activity result in assay [3] was “significant increase”. For the same molecule, the “HEY1 and HES1 expression” value in assay [4] is given as “increased”. In assay [1], the ALDH-positive cells entry is “enriched” and the mammosphere-forming activity entry is listed as “enriched”. Besides, the “expression of HEY1 and HES1” value in assay [2] is reported as “preferentially increased”.
